#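 Interpolation was linear, between the two tested concentrations surrounding the appropriate level; five concentrations were tested over 48 hours in 96-well plates. The concentration for full growth arrest is given as TGI.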
# Key:
# Experiment in all cases: NCI-60 cell line screen, 48 h
# NCI-H23 lung = tested on: NCI-H23 lung
# 786-0 renal = tested on: 786-0 renal
# RPMI-8226 leukemia = tested on: RPMI-8226 leukemia
# DU-145 prostate = tested on: DU-145 prostate
# SNB-19 CNS = tested on: SNB-19 CNS
# SF-539 CNS = tested on: SF-539 CNS
# A549 NSCLC = tested on: A549 NSCLC
# NCI-H460 lung = tested on: NCI-H460 lung
# OVCAR-8 ovarian = tested on: OVCAR-8 ovarian
# MALME-3M melanoma = tested on: MALME-3M melanoma
# HL-60(TB) leukemia = tested on: HL-60(TB) leukemia
# KM12 colon = tested on: KM12 colon
# HOP-92 NSCLC = tested on: HOP-92 NSCLC
Compound,TGI (NCI-H23 lung) [µM],TGI (786-0 renal) [µM],TGI (RPMI-8226 leukemia) [µM],TGI (DU-145 prostate) [µM],TGI (SNB-19 CNS) [µM],TGI (SF-539 CNS) [µM],TGI (A549 NSCLC) [µM],TGI (NCI-H460 lung) [µM],TGI (OVCAR-8 ovarian) [µM],TGI (MALME-3M melanoma) [µM],TGI (HL-60(TB) leukemia) [µM],TGI (KM12 colon) [µM],TGI (HOP-92 NSCLC) [µM]
COc1cc(C2c3[nH]c4ccc(F)cc4c3C[C@H]3COC(=O)N23)cc(OC)c1O (some centres undefined),18.5,26,> 100,39.2,> 100,11.4,28.3,19.8,39.3,55.7,38.1,26.3,> 100
CCOC(=O)/C=C(\C(=O)OCC)n1cnc2c(N)ncnc21,31.8,10.2,5.4,29.1,30,29.3,32.2,38.7,18.1,15.8,2.78,30.5,7.12
COc1cc(-c2c3c([nH]c(=O)c2C#N)-c2cc([N+](=O)[O-])ccc2CCC3)cc(OC)c1OC,45.8,65.2,52.1,> 100,> 100,> 100,81.8,67,> 100,73.9,72.7,> 100,> 100
Cc1nn(-c2ccccc2)c2c1C(c1cc3ccccc3nc1Cl)NC(=S)N2 (centres undefined),> 100,> 100,48.7,> 100,> 100,67.2,> 100,> 100,82.2,> 100,> 100,> 100,96.6
c1ccc2c(c1)CCN1CCc3c([nH]c4ccccc34)C21 (centres undefined),> 100,> 100,55.1,> 100,> 100,> 100,> 100,> 100,> 100,38.3,34.3,> 100,72.2
O=C(N/N=C/C=C/c1ccc([N+](=O)[O-])o1)c1ccc(Br)s1,33.5,47.5,23.4,> 100,78.9,74.5,> 100,> 100,46.7,37.9,87.2,40.5,25.7
CC(=O)Nc1ccc(S(=O)(=O)[N-]C2C(=O)c3ccccc3C(=O)C2[n+]2ccccc2)cc1 (centres undefined),21.5,> 100,> 100,> 100,27.3,33.3,39.7,86.3,38.3,25.1,40.5,27.9,33.6
CCCN1CN(c2ccccc2)C2(CCN(CCCC(=O)c3ccc(F)cc3)CC2)C1=O,17.3,17.3,42.2,11.1,34.7,15.5,29.8,26.9,32.6,30.1,40.2,31,8.98
